Laboratory results: patent US20240287138A1, “CYCLIC PEPTIDES FOR INHIBITING TNF RECEPTOR 1 ACTIVITY” (Merck Sharp & Dohme LLC, priority 2023, published 2024)
Numbered stars: 1 amine (or outer) side, 2 acyl side, 3 side chain; on linkers, the order of the positions; unused ones are H or OH. Bridge positions count the residues as written; N and C are the ends. Square brackets hold non-standard residues; d marks the D form. Peptide text beside a SMILES is read from it. Trp(βS-Me,7-OMe) = COc1cccc2c([C@H](C)[C@H](N)C(=O)O)c[nH]c12; Ala(1-bicyclo(1.1.1)pentyl) = N[C@@H](CC12CC(C1)C2)C(=O)O; Phe(4-CH2COOH) = N[C@@H](Cc1ccc(CC(=O)O)cc1)C(=O)O; Trp(4-Cl) = N[C@@H](Cc1c[nH]c2cccc(Cl)c12)C(=O)O; Trp(7-Cl) = N[C@@H](Cc1c[nH]c2c(Cl)cccc12)C(=O)O; X15 = C[C@H](c1ccc(O)cc1)[C@H](N[*:1])C(=O)[*:2]; Phe(4-CONH2) = NC(=O)c1ccc(C[C@H](N)C(=O)O)cc1; Phe(4-COOH) = N[C@@H](Cc1ccc(C(=O)O)cc1)C(=O)O; Trp(7-aza) = N[C@@H](Cc1c[nH]c2ncccc12)C(=O)O; Phe(4-CH2NH2) = NCc1ccc(C[C@H](N)C(=O)O)cc1; Pip(5R-OH) = O=C(O)[C@@H]1CC[C@@H](O)CN1; αMeW = C[C@](N)(Cc1c[nH]c2ccccc12)C(=O)O; X1 = O=C([C@@H]1CC[C@H](N[*:1])C1)[*:2]; 1Nal = N[C@@H](Cc1cccc2ccccc12)C(=O)O; 2Nal = N[C@@H](Cc1ccc2ccccc2c1)C(=O)O; Pip(4-aza) = O=C(O)[C@@H]1CNCCN1; hPhe = N[C@@H](CCc1ccccc1)C(=O)O; 3Pal = N[C@@H](Cc1cccnc1)C(=O)O; 4Pal = N[C@@H](Cc1ccncc1)C(=O)O; NMeE = CN[C@@H](CCC(=O)O)C(=O)O; NMeDab = CN[C@@H](CCN)C(=O)O; Dap(Me) = CNC[C@H](N)C(=O)O; NEtAla = CCN[C@@H](C)C(=O)O; αMeS = C[C@](N)(CO)C(=O)O; NMeA = CN[C@@H](C)C(=O)O; Nle = CCCC[C@H](N)C(=O)O; Dap = NC[C@H](N)C(=O)O; Sar = CNCC(=O)O

How the values were obtained:
[1] = biological target: T1, human TNFR1 extracellular domain (ECD) protein (Homo sapiens, UniProt P19438); assay: SPR binding affinity to captured human TNFR1 ECD
T1 construct: HRV 3C protease cleavage site (C); 6His (C, cleaved yes); made in house; host or cells: Sf21 insect cells (baculovirus), secreted
T1 sequence (P19438 30-211): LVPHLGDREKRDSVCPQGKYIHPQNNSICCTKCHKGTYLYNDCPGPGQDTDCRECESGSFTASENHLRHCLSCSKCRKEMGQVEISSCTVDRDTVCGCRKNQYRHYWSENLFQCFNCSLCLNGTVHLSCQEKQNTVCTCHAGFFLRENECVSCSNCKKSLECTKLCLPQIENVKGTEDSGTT
How it was run: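 Read-out: kon, koff and derived affinity from SPR response units. Human TNFR1 and TNFR2 ECD, Avi-tag biotinylated with BirA, captured on a streptavidin surface; peptides injected under laminar flow in HEPES-saline with EDTA, P20 and 2% DMSO.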

[2] = biological target: T2, TNFα-induced NF-κB signal transduction pathway (TNFR1 signaling) in THP-1 cells (Homo sapiens, UniProt P19438); assay: THP-1 Lucia NF-κB reporter cell assay, inhibition of TNFα-induced NF-κB signaling; assay type: cell-based; conditions: THP-1 NF-κB Lucia reporter cells, 10 ng/mL TNFα, 16-18 h, secreted luciferase; read-out: THP-1 IC50
T2 sequence (P19438 30-455): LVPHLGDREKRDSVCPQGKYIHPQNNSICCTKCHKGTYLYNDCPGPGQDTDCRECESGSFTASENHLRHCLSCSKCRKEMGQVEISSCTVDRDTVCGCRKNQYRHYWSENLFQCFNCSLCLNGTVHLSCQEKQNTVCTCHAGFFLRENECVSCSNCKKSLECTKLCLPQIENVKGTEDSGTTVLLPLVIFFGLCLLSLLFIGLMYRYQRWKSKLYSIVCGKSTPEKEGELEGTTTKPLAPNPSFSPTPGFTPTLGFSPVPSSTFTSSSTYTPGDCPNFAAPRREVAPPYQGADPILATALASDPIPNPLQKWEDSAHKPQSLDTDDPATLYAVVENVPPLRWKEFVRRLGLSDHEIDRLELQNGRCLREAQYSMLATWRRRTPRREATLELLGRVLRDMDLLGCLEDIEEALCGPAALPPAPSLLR
How it was run: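 IC50 from a 4-parameter logistic fit of secreted luciferase luminescence (QUANTI-Luc), normalised to min/max controls. Reporter THP-1 cells were exposed to peptides for 1 h at 37 °C before 10 ng/mL TNFα (final) was added overnight (16–18 h).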

SMILES	Kd [1]	IC50 [2]
CCCC[C@@H]1NC(=O)CSC[C@@H](C(N)=O)NC(=O)[C@](C)(Cc2c[nH]c3ccccc23)NC(=O)CN(C)C(=O)[C@H](Cc2ccc(O)cc2)NC(=O)[C@H](Cc2ccc(CC(=O)O)cc2)NC(=O)[C@](C)(CO)NC(=O)[C@H](Cc2c[nH]c3c(Cl)cccc23)NC(=O)[C@H](Cc2ccncc2)NC(=O)[C@H](CC(N)=O)NC(=O)[C@H](CCC(=O)O)N(C)C(=O)[C@H](Cc2c[nH]c3ncccc23)NC(=O)[C@H](CO)NC(=O)[C@H](Cc2ccc(CN)cc2)NC1=O [SEQ ID NO. 224] ({CH2CO}-[Nle][Phe(4-CH2NH2)]S[Trp(7-aza)][NMeE]N[4Pal][Trp(7-Cl)][αMeS][Phe(4-CH2COOH)]Y[Sar][αMeW]C-NH2; thioether N-14)	0.4 nM	4.8 nM
C[C@H]1C(=O)N[C@@H](CC(N)=O)C(=O)N[C@@H](Cc2ccncc2)C(=O)N[C@@H](Cc2ccc3ccccc3c2)C(=O)N[C@@](C)(CO)C(=O)N[C@@H](Cc2ccc(C(=O)O)cc2)C(=O)N[C@@H](Cc2ccc(O)cc2)C(=O)N(C)CC(=O)N[C@@H](Cc2c[nH]c3ccccc23)C(=O)N[C@H](C(N)=O)CSCC(=O)N[C@@H](CCCCN)C(=O)N[C@@H](Cc2ccncc2)C(=O)N[C@@H](CO)C(=O)N[C@@H](Cc2cccc3ccccc23)C(=O)N1C [SEQ ID NO. 227] ({CH2CO}-K[4Pal]S[1Nal][NMeA]N[4Pal][2Nal][αMeS][Phe(4-COOH)]Y[Sar]WC-NH2; thioether N-14)	2.3 nM	13.5 nM
CCCC[C@@H]1NC(=O)[C@@H]2CC[C@@H](C2)NC(=O)[C@H]([C@@H](C)c2c[nH]c3c(OC)cccc23)NC(=O)CN(C)C(=O)[C@H](Cc2ccc(C(N)=O)cc2)NC(=O)[C@H](Cc2ccc(C(N)=O)cc2)NC(=O)[C@](C)(CO)NC(=O)[C@H](Cc2c[nH]c3c(Cl)cccc23)NC(=O)[C@H](Cc2ccncc2)NC(=O)[C@H](CC(N)=O)NC(=O)[C@H](CCC(=O)O)N(C)C(=O)[C@H](Cc2c[nH]c3ccccc23)NC(=O)[C@@H]2CC[C@@H](O)CN2C(=O)[C@H](Cc2ccncc2)NC1=O [SEQ ID NO. 229] (cyclo([4Pal][Trp(7-Cl)][αMeS][Phe(4-CONH2)][Phe(4-CONH2)][Sar][Trp(βS-Me,7-OMe)][X1][Nle][4Pal][Pip(5R-OH)]W[NMeE]N))	0.14 nM	0.5 nM
CCCC[C@@H]1NC(=O)CSC[C@@H](C(N)=O)NC(=O)[C@](C)(Cc2c[nH]c3ccccc23)NC(=O)CN(C)C(=O)[C@H](Cc2ccc(O)cc2)NC(=O)[C@H](Cc2ccc(C(=O)O)cc2)NC(=O)[C@](C)(CO)NC(=O)[C@H](Cc2c[nH]c3c(Cl)cccc23)NC(=O)[C@H](Cc2ccncc2)NC(=O)[C@H](CC(N)=O)NC(=O)[C@H](CCC(=O)O)N(C)C(=O)[C@H](Cc2c[nH]c3ncccc23)NC(=O)[C@H](CCN)N(C)C(=O)[C@H](Cc2ccncc2)NC1=O [SEQ ID NO. 231] ({CH2CO}-[Nle][4Pal][NMeDab][Trp(7-aza)][NMeE]N[4Pal][Trp(7-Cl)][αMeS][Phe(4-COOH)]Y[Sar][αMeW]C-NH2; thioether N-14)	1.9 nM	6.1 nM
CCN1C(=O)[C@H](Cc2c[nH]c3c(Cl)cccc23)NC(=O)[C@H](CO)NC(=O)[C@H](Cc2ccncc2)NC(=O)[C@H](CC23CC(C2)C3)NC(=O)CSC[C@@H](C(N)=O)NC(=O)[C@H](Cc2c[nH]c3ncccc23)NC(=O)CN(C)C(=O)[C@H](Cc2ccc(O)cc2)NC(=O)[C@H](Cc2ccc(C(=O)O)cc2)NC(=O)[C@](C)(CO)NC(=O)[C@H](Cc2c[nH]c3ncccc23)NC(=O)[C@H](Cc2ccc(C(=O)O)cc2)NC(=O)[C@H](CC(N)=O)NC(=O)[C@@H]1C [SEQ ID NO. 232] ({CH2CO}-[Ala(1-bicyclo(1.1.1)pentyl)][4Pal]S[Trp(7-Cl)][NEtAla]N[Phe(4-COOH)][Trp(7-aza)][αMeS][Phe(4-COOH)]Y[Sar][Trp(7-aza)]C-NH2; thioether N-14)	0.7 nM	6.3 nM
CN1CC(=O)N[C@@H](Cc2c[nH]c3ccccc23)C(=O)N[C@H](C(N)=O)CSCC(=O)N[C@@H](CCc2ccccc2)C(=O)N[C@@H](Cc2ccncc2)C(=O)N[C@@H](CN)C(=O)N[C@@H](Cc2c[nH]c3ccccc23)C(=O)N2CCC[C@@H]2C(=O)N[C@@H](CC(N)=O)C(=O)N[C@@H](Cc2ccncc2)C(=O)N[C@@H](Cc2ccc3ccccc3c2)C(=O)N[C@@](C)(CO)C(=O)N[C@@H](Cc2ccc(C(=O)O)cc2)C(=O)N[C@@H](Cc2cccnc2)C1=O [SEQ ID NO. 233] ({CH2CO}-[hPhe][4Pal][Dap]W[dP]N[4Pal][2Nal][αMeS][Phe(4-COOH)][3Pal][Sar]WC-NH2; thioether N-14)	0.78 nM	14.2 nM
CCCC[C@@H]1NC(=O)CSC[C@@H](C(N)=O)NC(=O)[C@](C)(Cc2c[nH]c3ccccc23)NC(=O)CN(C)C(=O)[C@H](Cc2ccc(O)cc2)NC(=O)[C@H](Cc2ccc(C(=O)O)cc2)NC(=O)[C@](C)(CO)NC(=O)[C@H](Cc2c[nH]c3c(Cl)cccc23)NC(=O)[C@H](Cc2ccncc2)NC(=O)[C@H](CC(N)=O)NC(=O)[C@H](CCC(=O)O)N(C)C(=O)[C@H](Cc2c[nH]c3ncccc23)NC(=O)[C@H](CNC)NC(=O)[C@H](Cc2ccncc2)NC1=O [SEQ ID NO. 235] ({CH2CO}-[Nle][4Pal][Dap(Me)][Trp(7-aza)][NMeE]N[4Pal][Trp(7-Cl)][αMeS][Phe(4-COOH)]Y[Sar][αMeW]C-NH2; thioether N-14)	1.2 nM	5 nM
CN1CC(=O)N[C@@H](Cc2c[nH]c3cccc(Cl)c23)C(=O)N[C@H](C(N)=O)CSCC(=O)N[C@@H](CCC(N)=O)C(=O)N[C@@H](Cc2ccncc2)C(=O)N[C@@H](CO)C(=O)N[C@@H](Cc2c[nH]c3ncccc23)C(=O)N(C)[C@@H](CCC(=O)O)C(=O)N[C@@H](CC(N)=O)C(=O)N[C@@H](Cc2ccncc2)C(=O)N[C@@H](Cc2c[nH]c3c(Cl)cccc23)C(=O)N[C@@](C)(CO)C(=O)N[C@@H](Cc2ccc(C(=O)O)cc2)C(=O)N[C@@H](Cc2ccc(O)cc2)C1=O [SEQ ID NO. 239] ({CH2CO}-Q[4Pal]S[Trp(7-aza)][NMeE]N[4Pal][Trp(7-Cl)][αMeS][Phe(4-COOH)]Y[Sar][Trp(4-Cl)]C-NH2; thioether N-14)	0.3 nM	1.4 nM
CCCC[C@@H]1NC(=O)[C@@H]2CC[C@@H](C2)NC(=O)[C@H]([C@@H](C)c2c[nH]c3c(OC)cccc23)NC(=O)CN(C)C(=O)[C@H](Cc2ccc(OC)cc2)NC(=O)[C@H](Cc2ccc(C(=O)O)cc2)NC(=O)[C@](C)(CO)NC(=O)[C@H](Cc2c[nH]c3c(Cl)cccc23)NC(=O)[C@H](Cc2ccc(C(N)=O)cc2)NC(=O)[C@H](CCC(N)=O)NC(=O)[C@H](CCC(=O)O)N(C)C(=O)[C@H](Cc2c[nH]c3ccccc23)NC(=O)[C@@H]2CNCCN2C(=O)[C@H](Cc2ccncc2)NC1=O [SEQ ID NO. 240] (cyclo([4Pal][Pip(4-aza)]W[NMeE]Q[Phe(4-CONH2)][Trp(7-Cl)][αMeS][Phe(4-COOH)]Y(Me)[Sar][Trp(βS-Me,7-OMe)][X1][Nle]))	0.09 nM	1 nM
CN1CC(=O)N[C@@H](Cc2c[nH]c3ccccc23)C(=O)N[C@H](C(N)=O)CSCC(=O)N[C@@H](CCCCN)C(=O)N[C@@H](Cc2ccc(O)cc2)C(=O)N[C@@H](CO)C(=O)N[C@@H](Cc2c[nH]c3ccccc23)C(=O)N2CCC[C@@H]2C(=O)N[C@@H](CCC(N)=O)C(=O)N[C@@H](Cc2ccncc2)C(=O)N[C@@H](Cc2c[nH]c3ccccc23)C(=O)N[C@@](C)(CO)C(=O)N[C@@H](Cc2ccc(C(=O)O)cc2)C(=O)N[C@@H](Cc2ccc(O)cc2)C1=O [SEQ ID NO. 242] ({CH2CO}-KYSW[dP]Q[4Pal]W[αMeS][Phe(4-COOH)]Y[Sar]WC-NH2; thioether N-14)	0.3 nM	3 nM
CCCC[C@@H]1NC(=O)CSC[C@@H](C(N)=O)NC(=O)[C@H]([C@@H](C)c2c[nH]c3c(OC)cccc23)NC(=O)CN(C)C(=O)[C@H](Cc2ccc(O)cc2)NC(=O)[C@H](Cc2ccc(C(=O)O)cc2)NC(=O)[C@](C)(CO)NC(=O)[C@H](Cc2c[nH]c3c(Cl)cccc23)NC(=O)[C@H](Cc2ccncc2)NC(=O)[C@H](CC(N)=O)NC(=O)[C@H](CCC(=O)O)N(C)C(=O)[C@H](Cc2c[nH]c3ncccc23)NC(=O)[C@H](CO)NC(=O)[C@H]([C@H](C)c2ccc(O)cc2)NC1=O [SEQ ID NO. 243] ({CH2CO}-[Nle][X15]S[Trp(7-aza)][NMeE]N[4Pal][Trp(7-Cl)][αMeS][Phe(4-COOH)]Y[Sar][Trp(βS-Me,7-OMe)]C-NH2; thioether N-14)	0.06 nM	3.2 nM
